18 compounds from ChEMBL document CHEMBL3734672, “Synthesis, cyclooxygenase inhibition, anti-inflammatory evaluation and ulcerogenic liability of novel triarylpyrazoline derivatives as selective COX-2 inhibitors” (Bioorg Med Chem Lett, 2015) can be followed below.

In series [1] the test system is Rattus norvegicus. The series can be described thus: Antiinflammatory activity in rat assessed as inhibition of carrageenan-induced paw edema at 50 mg/kg, po measured after 3hrs post carrageenan challenge. Format: functional.
In series [2] the test system is Rattus norvegicus. Nature of the series: Ulcerogenic activity in rat assessed as ulcer index at 100 mg/kg. The conditions noted are these: in vivo. Type of series: toxicity, organism-based.
Series [3] deals with Rattus norvegicus. The series can be described thus: Gastrointestinal toxicity in rat assessed as ulcer incidence at 100 mg/kg. Format: organism-based. The conditions noted are these: in vivo.
In series [4] the target is T1, Prostaglandin G/H synthase 1 (Ovis aries, UniProt P05979).
T1 sequence (P05979 whole entry): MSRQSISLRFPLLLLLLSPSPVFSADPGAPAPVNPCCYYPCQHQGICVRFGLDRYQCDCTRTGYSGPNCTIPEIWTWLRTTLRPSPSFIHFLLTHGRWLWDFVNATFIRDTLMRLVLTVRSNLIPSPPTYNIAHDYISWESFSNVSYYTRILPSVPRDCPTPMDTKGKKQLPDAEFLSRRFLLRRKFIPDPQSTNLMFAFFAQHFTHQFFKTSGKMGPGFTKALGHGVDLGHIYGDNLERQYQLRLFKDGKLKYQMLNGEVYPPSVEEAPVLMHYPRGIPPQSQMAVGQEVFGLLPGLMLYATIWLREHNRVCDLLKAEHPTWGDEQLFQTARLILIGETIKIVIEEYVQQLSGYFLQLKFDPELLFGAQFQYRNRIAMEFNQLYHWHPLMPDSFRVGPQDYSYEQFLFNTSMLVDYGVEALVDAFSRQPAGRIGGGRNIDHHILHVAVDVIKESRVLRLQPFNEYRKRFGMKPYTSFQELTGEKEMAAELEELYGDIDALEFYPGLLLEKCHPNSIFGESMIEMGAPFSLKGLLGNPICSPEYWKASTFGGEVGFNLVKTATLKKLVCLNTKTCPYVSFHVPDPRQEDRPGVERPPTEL
Nature of the series: Inhibition of ovine COX-1 preincubated for 2 mins prior to arachidonic acid addition by enzyme immuno assay.

In series [5] the target is T2, Prostaglandin G/H synthase 2 (Homo sapiens, UniProt P35354).
T2 sequence (P35354 whole entry): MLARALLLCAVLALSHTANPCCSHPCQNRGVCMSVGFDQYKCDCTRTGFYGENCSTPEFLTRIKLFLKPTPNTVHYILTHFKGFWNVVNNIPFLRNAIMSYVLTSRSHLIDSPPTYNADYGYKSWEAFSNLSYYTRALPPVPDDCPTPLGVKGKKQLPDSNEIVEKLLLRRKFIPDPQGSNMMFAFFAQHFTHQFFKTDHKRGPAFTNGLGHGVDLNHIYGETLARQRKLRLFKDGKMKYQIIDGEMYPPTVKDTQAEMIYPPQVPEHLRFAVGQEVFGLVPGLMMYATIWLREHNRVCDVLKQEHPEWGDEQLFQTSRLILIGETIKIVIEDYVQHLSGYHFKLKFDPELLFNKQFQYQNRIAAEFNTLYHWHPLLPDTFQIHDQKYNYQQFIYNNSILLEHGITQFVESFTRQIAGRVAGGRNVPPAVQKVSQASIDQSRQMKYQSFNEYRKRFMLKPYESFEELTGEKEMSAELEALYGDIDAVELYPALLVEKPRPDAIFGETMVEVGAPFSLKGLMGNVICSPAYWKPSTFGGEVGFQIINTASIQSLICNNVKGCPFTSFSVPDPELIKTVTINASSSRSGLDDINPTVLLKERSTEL
Nature of the series: Inhibition of human recombinant COX-2 preincubated for 2 mins prior to arachidonic acid addition by enzyme immuno assay.

Series [6] in a line: Selectivity index, ratio of IC50 for ovine COX-1 to IC50 for human recombinant COX-2.

For `Cc1ccc(-c2cc(C(F)(F)F)nn2-c2ccc(S(N)(=O)=O)cc2)cc1` [CELECOXIB], the inhibition in vivo – broadly, the relative decrease from the control value, in per cent – at 50 mg/kg in series [1] amounted to 65.3%. Moreover, in series [2], the UI came out at 4.85. In series [3], the Activity amounted to 4.2%.
As for `COc1ccc(C2CC(c3ccc(S(C)(=O)=O)cc3)=NN2c2ccc(C(=O)O)cc2)cc1OC` (stereo not given), the IC50 (commonly the concentration that gives 50% inhibition) in series [4] turned out to be 9.7 µM; in series [5] it was 3.74 µM. Further, the Ratio IC50 in series [6] is 2.61. For the same compound, the inhibition in vivo at 50 mg/kg in series [1] was determined as 6.11%.
On to `CS(=O)(=O)c1ccc(C2=NN(c3ccc(C(=O)O)cc3)C(c3cccs3)C2)cc1` (stereo not given), for which the IC50 in series [4] worked out at 4.7 µM; in series [5] it was 1.16 µM. Also, the Ratio IC50 in series [6] stood at 4.11. Moreover, the inhibition in vivo at 50 mg/kg in series [1] is 35.6%.
With `CS(=O)(=O)c1ccc(C2=NN(c3ccc(C(=O)O)cc3)C(c3ccc(Cl)cc3)C2)cc1` (stereo not given), the IC50 in series [4] worked out at 11.4 µM; in series [5] it was 3.98 µM. Also, in series [6], the Ratio IC50 turned out to be 2.91. For the same compound, the inhibition in vivo at 50 mg/kg in series [1] is 50.4%.
For the compound `CS(=O)(=O)c1ccc(C2=NN(c3ccc(C(=O)O)cc3)C(c3ccccc3)C2)cc1` (stereo not given), the values for the IC50 in series [4] and in series [5] were 4.9 µM and 0.98 µM, respectively. The Ratio IC50 in series [6] turned out to be 5. The inhibition in vivo at 50 mg/kg in series [1] was found to be 56.4%.
The corresponding values for `COc1ccc(C2CC(c3ccc(S(C)(=O)=O)cc3)=NN2c2ccc(S(N)(=O)=O)cc2)cc1OC` (stereo not given) are 8.7 µM, 1.98 µM, 4.41 and 45.5%.
The matching figures for `COc1ccc(C2CC(c3ccc(S(C)(=O)=O)cc3)=NN2c2ccc(C(=O)O)cc2)cc1` (stereo not given): 6.6 µM, 2.17 µM, 3.11 and 55.4%.
Regarding `COc1cc(C2CC(c3ccc(S(C)(=O)=O)cc3)=NN2c2ccc(S(N)(=O)=O)cc2)cc(OC)c1OC` (stereo not given), the IC50 in series [4] was found to be 12.3 µM; in series [5], 4.67 µM. Further, the Ratio IC50 in series [6] turned out to be 2.63. Further, the inhibition in vivo at 50 mg/kg in series [1] is 73.7%. Further, the UI in series [2] worked out at 5.92. For the same compound, in series [3], the Activity was 5%.
As to `CS(=O)(=O)c1ccc(C2=NN(c3ccc(S(N)(=O)=O)cc3)C(c3ccc(Cl)cc3)C2)cc1` (stereo not given), the results for the IC50 in series [4] and in series [5] were 8.3 µM and 2.67 µM, respectively. Further, the Ratio IC50 in series [6] came out at 3.11. The inhibition in vivo at 50 mg/kg in series [1] was found to be 42.4%.
Take `CS(=O)(=O)c1ccc(C2=NN(c3ccc(S(N)(=O)=O)cc3)C(c3ccccc3)C2)cc1` (stereo not given): the IC50 amounted to 5.4 µM in series [4] and 1.62 µM in series [5]. Moreover, the Ratio IC50 in series [6] is 3.33. Besides, the inhibition in vivo at 50 mg/kg in series [1] stood at 54.3%.
In the case of `COc1ccc2c(c1)c(CC(=O)O)c(C)n2C(=O)c1ccc(Cl)cc1` [INDOMETHACIN], the UI in series [2] was determined as 12.3. The Activity in series [3] was 8.3%.
On to `CS(=O)(=O)c1ccc(C2=NN(c3ccc(S(N)(=O)=O)cc3)C(c3ccc(F)cc3)C2)cc1` (stereo not given), for which the IC50 was determined as 9.7 µM in series [4] and 3.41 µM in series [5]. For the same compound, in series [6], the Ratio IC50 was found to be 2.91. The inhibition in vivo at 50 mg/kg in series [1] was found to be 65.7%. In series [2], the UI came out at 7.7. Also, the Activity in series [3] came out at 6%.
As for `CS(=O)(=O)c1ccc(C2=NN(c3ccc(C(=O)O)cc3)C(c3ccc(F)cc3)C2)cc1` (stereo not given), the IC50 in series [4] is 9.7 µM; in series [5], 2.84 µM. Besides, in series [6], the Ratio IC50 turned out to be 3.42. Besides, the inhibition in vivo at 50 mg/kg in series [1] is 42.3%.
The matching figures for `COc1ccc(C2CC(c3ccc(S(C)(=O)=O)cc3)=NN2c2ccc(S(N)(=O)=O)cc2)cc1` (stereo not given): 6.5 µM, 2.11 µM, 3.1 and 42.4%.
The matching figures for `COc1cccc(C2CC(c3ccc(S(C)(=O)=O)cc3)=NN2c2ccc(C(=O)O)cc2)c1` (stereo not given): 10.1 µM, 4.71 µM, 2.21 and 31.3%.
The corresponding values for `CS(=O)(=O)c1ccc(C2=NN(c3ccc(S(N)(=O)=O)cc3)C(c3cccs3)C2)cc1` (stereo not given) are 6.4 µM, 1.75 µM, 3.71 and 36.4%.
Turning to `COc1cccc(C2CC(c3ccc(S(C)(=O)=O)cc3)=NN2c2ccc(S(N)(=O)=O)cc2)c1` (stereo not given), the IC50 in series [4] came out at 7.1 µM; in series [5], 1.76 µM. Moreover, in series [6], the Ratio IC50 amounted to 4.11. Moreover, in series [1], the inhibition in vivo at 50 mg/kg was determined as 38.3%.
Consider `COc1cc(C2CC(c3ccc(S(C)(=O)=O)cc3)=NN2c2ccc(C(=O)O)cc2)cc(OC)c1OC` (stereo not given), for which the IC50 in series [4] is 13.4 µM; in series [5], 5.94 µM. Further, the Ratio IC50 in series [6] came out at 2.51. In addition, the inhibition in vivo at 50 mg/kg in series [1] was 66.2%. For the same compound, the UI in series [2] is recorded as 6.85. Besides, the Activity in series [3] is listed as 5.5%.
